Test results reported in patent US8791131B2, “Imidazo[1,5]naphthyridine compounds, their pharmaceutical use and compositions” (Pfizer Inc., priority 2008, dated 2014).
Read-outs that look alike come from different tables or passages of the source.

Experiments:
PI3-Kα = PI3-Kα (Mus musculus (Mouse), UniProt P42337); test: PI3-Kα biochemical assay (in vitro kinase assay, fluorescence polarization); conditions: Ki calculated from IC50, [ATP]=30 uM, Km=25 uM;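 further: Insect-cell-expressed mouse p110/p85 complex converting PI(4,5)P2, product PI(3,4,5)P3 detected by displacing TAMRA-tagged PI(3,4,5)P3 from Grip1 PH domain, lower polarization means more product, room temperature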
mTOR = mTOR (Homo sapiens (Human), UniProt P42345)
[1] = tested on: PI3-K (phosphorylation of AKT at serine 473) in BT20 cells; test: PI3-Kα cellular assay (phospho-AKT Ser473 ELISA in BT20 cells); conditions: Homo sapiens, BT-20, 1 h;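 further: lysates read by ELISA with TMB colour at 450 nm, cells given 0.5% DMSO vehicle serve as positive control and cell-free wells as negative control, duplicate wells per concentration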
[2] = read-out: S473 pAKT 0.5% FBS IC50 (μM)
[3] = read-out: S473 pAKT 10% FBS IC50 (μM)

Sequence of mTOR (P42345 2156-2469): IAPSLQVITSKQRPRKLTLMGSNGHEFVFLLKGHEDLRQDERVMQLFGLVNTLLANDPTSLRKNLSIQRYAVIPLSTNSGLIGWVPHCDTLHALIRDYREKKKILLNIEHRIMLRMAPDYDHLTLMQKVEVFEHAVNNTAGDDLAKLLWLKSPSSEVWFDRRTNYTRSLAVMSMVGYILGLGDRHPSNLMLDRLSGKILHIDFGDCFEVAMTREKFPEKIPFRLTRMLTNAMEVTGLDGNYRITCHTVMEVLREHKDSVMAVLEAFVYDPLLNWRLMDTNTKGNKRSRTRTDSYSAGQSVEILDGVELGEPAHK
Sequence of PI3-Kα (P42337 whole entry, the tested form may be a part): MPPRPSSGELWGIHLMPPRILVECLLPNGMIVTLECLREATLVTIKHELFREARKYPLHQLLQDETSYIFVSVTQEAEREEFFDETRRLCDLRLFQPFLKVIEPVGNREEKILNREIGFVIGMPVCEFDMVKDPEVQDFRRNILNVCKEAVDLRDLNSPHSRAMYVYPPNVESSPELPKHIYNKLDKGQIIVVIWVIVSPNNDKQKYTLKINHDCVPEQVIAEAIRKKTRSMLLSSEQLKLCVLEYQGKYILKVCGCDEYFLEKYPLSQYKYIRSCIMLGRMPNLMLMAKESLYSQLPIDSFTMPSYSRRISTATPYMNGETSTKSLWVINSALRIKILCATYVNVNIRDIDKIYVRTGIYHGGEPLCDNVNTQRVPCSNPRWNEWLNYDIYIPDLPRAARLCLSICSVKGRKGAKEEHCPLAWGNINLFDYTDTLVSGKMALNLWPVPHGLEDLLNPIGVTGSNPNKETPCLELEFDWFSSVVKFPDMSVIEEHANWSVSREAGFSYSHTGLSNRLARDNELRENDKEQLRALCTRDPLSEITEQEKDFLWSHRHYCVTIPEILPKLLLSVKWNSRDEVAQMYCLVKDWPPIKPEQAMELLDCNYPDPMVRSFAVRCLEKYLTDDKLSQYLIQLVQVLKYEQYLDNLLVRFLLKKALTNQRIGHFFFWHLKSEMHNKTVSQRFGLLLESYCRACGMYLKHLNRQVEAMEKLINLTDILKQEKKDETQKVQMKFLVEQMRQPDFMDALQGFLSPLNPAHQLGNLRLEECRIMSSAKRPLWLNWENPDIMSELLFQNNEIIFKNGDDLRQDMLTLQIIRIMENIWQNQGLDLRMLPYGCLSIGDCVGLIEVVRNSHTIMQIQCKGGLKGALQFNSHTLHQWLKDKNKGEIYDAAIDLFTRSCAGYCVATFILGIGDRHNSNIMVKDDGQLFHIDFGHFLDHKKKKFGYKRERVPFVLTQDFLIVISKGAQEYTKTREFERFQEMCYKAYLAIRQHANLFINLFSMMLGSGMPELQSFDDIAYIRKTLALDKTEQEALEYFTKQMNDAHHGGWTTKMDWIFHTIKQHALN
Sequence of PI3-Kα (P26450 whole entry partner, the tested form may be a part): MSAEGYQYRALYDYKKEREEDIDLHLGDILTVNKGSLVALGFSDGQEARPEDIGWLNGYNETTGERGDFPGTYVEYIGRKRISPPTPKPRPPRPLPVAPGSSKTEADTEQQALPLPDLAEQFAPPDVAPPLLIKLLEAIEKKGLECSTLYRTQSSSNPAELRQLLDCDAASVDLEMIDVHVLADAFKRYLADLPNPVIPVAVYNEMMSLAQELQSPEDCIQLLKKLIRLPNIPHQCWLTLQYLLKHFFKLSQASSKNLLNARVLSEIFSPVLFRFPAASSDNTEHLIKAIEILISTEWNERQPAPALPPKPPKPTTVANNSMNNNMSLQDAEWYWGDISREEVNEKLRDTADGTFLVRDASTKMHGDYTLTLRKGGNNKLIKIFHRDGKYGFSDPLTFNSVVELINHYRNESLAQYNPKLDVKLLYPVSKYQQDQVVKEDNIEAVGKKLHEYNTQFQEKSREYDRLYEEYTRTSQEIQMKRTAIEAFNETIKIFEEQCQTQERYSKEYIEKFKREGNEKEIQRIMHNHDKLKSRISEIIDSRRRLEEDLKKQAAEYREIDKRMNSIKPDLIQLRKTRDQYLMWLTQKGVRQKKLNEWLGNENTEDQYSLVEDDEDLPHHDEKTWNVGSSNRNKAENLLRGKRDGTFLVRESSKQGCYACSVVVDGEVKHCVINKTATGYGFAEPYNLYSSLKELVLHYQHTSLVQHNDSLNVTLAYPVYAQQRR

Row | Structure (SMILES) | PI3Ka Ki (PI3-Kα) [nM] | Ki (mTOR) [nM] | IC50 [1, 2] [µM] | IC50 [1, 3] [µM]
1 | COc1ccc(-c2ccc3ncc4[nH]c(=O)n(-c5ccc(C(C)(C)C#N)cc5)c4c3n2)cn1 [Compound 103, 2-{4-[8-(6-methoxypyridin-3-yl)-2-oxo-2,3-dihydro-1H-imidazo[4,5-c]-1,5-naphthyridin-1-yl]phenyl}-2-methylpropanenitrile] | 1.86 | 2.09 | 0.0115 | –
2 | Cc1ccc(-c2ccc3ncc4c(c3n2)n(-c2ccc(C(C)(C)C#N)cc2)c(=O)n4C)cn1 [Compound 106, 2-methyl-2-{4-[3-methyl-8-(6-methylpyridin-3-yl)-2-oxo-2,3-dihydro-1H-imidazo[4,5-c]-1,5-naphthyridin-1-yl]phenyl}propanenitrile] | 34.8 | 26.9 | 0.0244 | –
3 | CN(C)c1ccc(-c2ccc3ncc4[nH]c(=O)n(-c5ccc(C(C)(C)C#N)cc5)c4c3n2)cn1 [Compound 107, 2-(4-(8-(6-(dimethylamino)pyridin-3-yl)-2-oxo-2,3-dihydroimidazo[4,5-c][1,5]naphthyridin-1-yl)phenyl)-2-methylpropanenitrile] | 3.85 | 4.26 | 0.0676 | –
4 | CN(C)c1ccc(-c2ccc3ncc4c(c3n2)n(-c2ccc(C(C)(C)C#N)cc2)c(=O)n4C)cn1 [Compound 108, 2-(4-(8-(6-(dimethylamino)pyridin-3-yl)-3-methyl-2-oxo-2,3-dihydroimidazo[4,5-c][1,5]naphthyridin-1-yl)phenyl)-2-methylpropanenitrile] | 4.45 | 4.67 | 0.0309 | –
5 | COc1ncc(-c2ccc3ncc4[nH]c(=O)n(-c5ccc(C(C)(C)C#N)cc5)c4c3n2)cc1F [Compound 109, 2-(4-(8-(5-fluoro-6-methoxypyridin-3-yl)-2-oxo-2,3-dihydroimidazo[4,5-c][1,5]naphthyridin-1-yl)phenyl)-2-methylpropanenitrile] | 3.81 | 9.03 | 0.197 | –
6 | COc1ncc(-c2ccc3ncc4c(c3n2)n(-c2ccc(C(C)(C)C#N)cc2)c(=O)n4C)cc1F [Compound 110, 2-(4-(8-(5-fluoro-6-methoxypyridin-3-yl)-3-methyl-2-oxo-2,3-dihydroimidazo[4,5-c][1,5]naphthyridin-1-yl)phenyl)-2-methylpropanenitrile] | 2.35 | 26.6 | – | 0.0907
7 | COc1ncc(-c2ccc3ncc4[nH]c(=O)n(-c5ccc(C(C)(C)C#N)cc5)c4c3n2)cn1 [Compound 111, 2-(4-(8-(2-methoxypyrimidin-5-yl)-2-oxo-2,3-dihydroimidazo[4,5-c][1,5]naphthyridin-1-yl)phenyl)-2-methylpropanenitrile] | 11.4 | 1.54 | 0.0439 | –
8 | Cn1cc(-c2ccc3ncc4[nH]c(=O)n(-c5ccc(C(C)(C)C#N)cc5)c4c3n2)cn1 [Compound 113, 2-Methyl-2-{4-[8-(1-methyl-1H-pyrazol-4-yl)-2-oxo-2,3-dihydro-1,3,5,9-tetraaza-cyclopenta[a]naphthalen-1-yl]-phenyl}-propionitrile] | 59.2 | 15.5 | 0.0973 | –
9 | Cn1cc(-c2ccc3ncc4c(c3n2)n(-c2ccc(C(C)(C)C#N)cc2)c(=O)n4C)cn1 [Compound 114, 2-Methyl-2-{4-[3-methyl-8-(1-methyl-1H-pyrazol-4-yl)-2-oxo-2,3-dihydro-1,3,5,9-tetraaza-cyclopenta[a]naphthalen-1-yl]-phenyl}-propionitrile] | 72.3 | 40.2 | 0.116 | –
10 | O=c1[nH]c2cnc3ccc(-c4cnc5ccccc5c4)nc3c2n1C1CCNCC1 [Compound 117, 1-piperidin-4-yl-8-quinolin-3-yl-1,3-dihydro-2H-imidazo[4,5-c][1,5]naphthyridin-2-one] | 2.43 | 12.4 | – | 0.353
11 | CCN1CCC(n2c(=O)n(C)c3cnc4ccc(-c5cnc6ccccc6c5)nc4c32)CC1 [Compound 119, 1-(1-ethylpiperidin-4-yl)-3-methyl-8-quinolin-3-yl-1,3-dihydro-2H-imidazo[4,5-c][1,5]naphthyridin-2-one] | 3.19 | 8.11 | 0.0117 | –
12 | CCC(=O)N1CCC(n2c(=O)n(C)c3cnc4ccc(-c5cnc6ccccc6c5)nc4c32)CC1 [Compound 121, 3-methyl-1-(1-propionylpiperidin-4-yl)-8-quinolin-3-yl-1,3-dihydro-2H-imidazo[4,5-c][1,5]naphthyridin-2-one] | 0.539 | 7.9 | 0.00786 | –
13 | COC(=O)N1CCC(n2c(=O)n(C)c3cnc4ccc(-c5cnc6ccccc6c5)nc4c32)CC1 [Compound 122, methyl4-(3-methyl-2-oxo-8-quinolin-3-yl-2,3-dihydro-1H-imidazo[4,5-c][1,5]napthyridin-1-yl)piperidine-1-carboxylate] | 0.806 | 12.4 | 0.00807 | –
14 | CNC(=O)N1CCC(n2c(=O)n(C)c3cnc4ccc(-c5cnc6ccccc6c5)nc4c32)CC1 [Compound 123, N-methyl-4-(3-methyl-2-oxo-8-quinolin-3-yl-2,3-dihydro-1H-imidazo[4,5-c][1,5]naphthyridin-1-yl)piperidine-1-carboxamide] | 1.96 | 4.91 | 0.00734 | –
15 | CC(C)C(=O)N1CCC(n2c(=O)n(C)c3cnc4ccc(-c5cnc6ccccc6c5)nc4c32)CC1 [Compound 125, 1-(1-isobutyrylpiperidin-4-yl)-3-methyl-8-quinolin-3-yl-1,3-dihydro-2H-imidazo[4,5-c][1,5]naphthyridin-2-one] | 1.06 | 4.87 | 0.0294 | –
16 | CN(C)CC(=O)N1CCC(n2c(=O)n(C)c3cnc4ccc(-c5cnc6ccccc6c5)nc4c32)CC1 [Compound 126, 1-[1-(N,N-dimethylglycyl)piperidin-4-yl]-3-methyl-8-quinolin-3-yl-1,3-dihydro-2H-imidazo[4,5-c][1,5]naphthyridin-2-one] | 2.55 | 3.42 | 0.018 | –
17 | CCOC(=O)N1CCC(n2c(=O)n(C)c3cnc4ccc(-c5cnc6ccccc6c5)nc4c32)CC1 [Compound 127, ethyl 4-(3-methyl-2-oxo-8-quinolin-3-yl-2,3-dihydro-1H-imidazo[4,5-c][1,5]naphthyridin-1-yl)piperidine-1-carboxylate] | 1.38 | 4.3 | 0.0204 | –
18 | CC(C)OC(=O)N1CCC(n2c(=O)n(C)c3cnc4ccc(-c5cnc6ccccc6c5)nc4c32)CC1 [Compound 128, isopropyl 4-(3-methyl-2-oxo-8-quinolin-3-yl-2,3-dihydro-1H-imidazo[4,5-c][1,5]naphthyridin-1-yl)piperidine-1-carboxylate] | 2.89 | 9.72 | 0.0196 | –
19 | CN1CCC(n2c(=O)n(C)c3cnc4ccc(-c5cnc6ccccc6c5)nc4c32)CC1 [Compound 129, 3-methyl-1-(1-methylpiperidin-4-yl)-8-quinolin-3-yl-1,3-dihydro-2H-imidazo[4,5-c][1,5]naphthyridin-2-one] | 5.92 | 4.9 | 0.0117 | –
20 | COc1ccc(-c2ccc3ncc4[nH]c(=O)n(Cc5ccccc5)c4c3n2)cn1 [Compound 130, 1-benzyl-8-(6-methoxypyridin-3-yl)-1,3-dihydro-2H-imidazo[4,5-c][1,5]naphthyridin-2-one] | 2.39 | 8.44 | 0.0245 | –
21 | COc1ccc(-c2ccc3ncc4[nH]c(=O)n([C@H]5CC[C@H](OCCO)CC5)c4c3n2)cn1 [Compound 131, 1-[trans-4-(2-hydroxyethoxy)cyclohexyl]-8-(6-methoxypyridin-3-yl)-1,3-dihydro-2H-imidazo[4,5-c][1,5]naphthyridin-2-one] | 0.644 | 2.14 | – | 0.0384
22 | COc1ccc(-c2ccc3ncc4[nH]c(=O)n([C@H]5CC[C@H](O)CC5)c4c3n2)cn1 [Compound 132, 1-(trans-4-hydroxycyclohexyl)-8-(6-methoxypyridin-3-yl)-1,3-dihydro-2H-imidazo[4,5-c][1,5]naphthyridin-2-one] | 0.51 | 1.39 | – | 0.0468
23 | COc1ccc(-c2ccc3ncc4c(c3n2)n(C2CCN(C(C)C)CC2)c(=O)n4C)cn1 [Compound 137, 1-(1-isopropylpiperidin-4-yl)-8-(6-methoxypyridin-3-yl)-3-methyl-1,3-dihydro-2H-imidazo[4,5-c][1,5]naphthyridin-2-one] | 3.48 | 17.8 | – | 0.0551
24 | COc1ccc(-c2ccc3ncc4c(c3n2)n(C2CCN(C(=O)CN(C)C)CC2)c(=O)n4C)cn1 [Compound 138, 1-[1-(N,N-dimethylglycyl)piperidin-4-yl]-8-(6-methoxypyridin-3-yl)-3-methyl-1,3-dihydro-2H-imidazo[4,5-c][1,5]naphthyridin-2-one] | 2.23 | 10.6 | – | 0.0144
25 | CNC(=O)N1CCC(n2c(=O)n(C)c3cnc4ccc(-c5cnn(C)c5)nc4c32)CC1 [Compound 217, N-methyl-4-[3-methyl-8-(1-methyl-1H-pyrazol-4-yl)-2-oxo-2,3-dihydro-1H-imidazo[4,5-c][1,5]naphthyridin-1-yl]piperidine-1-carboxamide] | – | 18.7 | – | 0.0793
26 | COc1ccc(-c2ccc3ncc4c(c3n2)n(C2CCN(C(=O)CO)CC2)c(=O)n4C)cc1 [Compound 273, 1-(1-glycoloylpiperidin-4-yl)-8-(4-methoxyphenyl)-3-methyl-1,3-dihydro-2H-imidazo[4,5-c][1,5]naphthyridin-2-one] | – | 3.42 | – | 0.0174
